Earlier results on one molecule are cited in US20200179539A1, “Contrast Agents and Methods of Making the Same for Spectral CT That Exhibit Cloaking and Auto-Segmentation” (BOARD OF REGENTS, THE UNIVERSITY OF TEXAS SYSTEM, priority 2017, published 2020).

Structures are written as SMILES.

This data set deals with rat. The settings on record: rat oral.

As for `[Na+].[Na+].[O]=[W](=[O])([O-])[O-]` [sodium tungstate], the LD50 is listed as 1,190 mg/Kg.
